Test [1] has as its target T1, Thyroid Receptor β (Homo sapiens, UniProt P10828).
T1 construct: host or cells: engineered reporter cells of the kit
T1 sequence (P10828 1-461): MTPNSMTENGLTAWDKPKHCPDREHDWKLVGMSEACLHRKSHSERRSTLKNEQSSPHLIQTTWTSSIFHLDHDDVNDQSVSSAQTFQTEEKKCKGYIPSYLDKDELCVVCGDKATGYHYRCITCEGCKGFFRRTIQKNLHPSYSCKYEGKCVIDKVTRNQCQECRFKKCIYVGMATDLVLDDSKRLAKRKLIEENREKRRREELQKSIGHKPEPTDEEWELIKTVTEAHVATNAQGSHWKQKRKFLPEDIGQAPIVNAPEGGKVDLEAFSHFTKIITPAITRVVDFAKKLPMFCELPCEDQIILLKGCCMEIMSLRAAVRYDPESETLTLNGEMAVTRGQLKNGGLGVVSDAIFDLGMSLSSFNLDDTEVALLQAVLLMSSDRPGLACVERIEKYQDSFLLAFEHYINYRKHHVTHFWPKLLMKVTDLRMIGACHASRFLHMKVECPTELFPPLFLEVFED
Put plainly: Target selectivity counterscreen, Thyroid Receptor β reporter assay. The following applies: receptor agonist at ~EC80. The test is classed as cell-based. Here is the method: (§1) Target Selectivity Assays
(§2) To determine species selectivity, a Mouse PPARα Reporter Assay System was used (Indigo Biosciences, Cat. #M00111). Activity of test compounds to antagonize or agonize other isoforms of human PPAR, for example β/δ and γ, were assessed using the corresponding kits from Indigo Biosciences (Cat. #IB00121 and #IB00101, respectively). In addition to PPAR activity, compounds were also screened for activity against other nuclear hormone receptors including Estrogen Receptor β, Glucocorticoid Receptor and Thyroid Receptor β using commercially available kits (Indigo Biosciences, Cat. #IB00411, IB00201 and IB01101, respectively). Each assay system from Indigo Biosciences uses technology analogous to the human PPARα kit, with the variance being that the cells used for each assay were engineered to over-express the receptor of interest. In addition, the appropriate receptor agonist (included with each kit) was used at ˜EC80 for assays in which antagonist potency was being assessed.

The target in test [2] is T2, PPAR beta/delta (Homo sapiens, UniProt Q03181).
T2 construct: host or cells: engineered reporter cells of the kit
T2 sequence (Q03181 1-441): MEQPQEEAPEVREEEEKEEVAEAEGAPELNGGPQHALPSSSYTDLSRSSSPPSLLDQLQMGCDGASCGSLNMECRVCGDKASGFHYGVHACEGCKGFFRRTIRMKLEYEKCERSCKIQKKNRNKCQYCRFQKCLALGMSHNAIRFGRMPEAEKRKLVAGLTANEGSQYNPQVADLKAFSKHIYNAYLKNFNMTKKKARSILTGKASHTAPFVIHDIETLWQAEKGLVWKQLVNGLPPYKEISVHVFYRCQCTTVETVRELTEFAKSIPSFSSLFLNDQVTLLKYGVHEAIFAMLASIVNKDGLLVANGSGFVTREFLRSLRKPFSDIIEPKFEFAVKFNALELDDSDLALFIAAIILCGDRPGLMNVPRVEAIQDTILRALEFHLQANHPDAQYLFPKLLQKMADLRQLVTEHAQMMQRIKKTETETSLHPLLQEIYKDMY
As to the kind of experiment: Target selectivity counterscreen, PPAR β/δ reporter assay. The test is classed as cell-based. The following applies: receptor agonist at ~EC80. Here is the method:
as §1, §2
Background: The purpose of a counterscreen is to sort out artefacts and off-target activity.

Test [3] deals with T3, Glucocorticoid Receptor (Homo sapiens, UniProt P04150).
T3 construct: host or cells: engineered reporter cells of the kit
T3 sequence (P04150 1-777): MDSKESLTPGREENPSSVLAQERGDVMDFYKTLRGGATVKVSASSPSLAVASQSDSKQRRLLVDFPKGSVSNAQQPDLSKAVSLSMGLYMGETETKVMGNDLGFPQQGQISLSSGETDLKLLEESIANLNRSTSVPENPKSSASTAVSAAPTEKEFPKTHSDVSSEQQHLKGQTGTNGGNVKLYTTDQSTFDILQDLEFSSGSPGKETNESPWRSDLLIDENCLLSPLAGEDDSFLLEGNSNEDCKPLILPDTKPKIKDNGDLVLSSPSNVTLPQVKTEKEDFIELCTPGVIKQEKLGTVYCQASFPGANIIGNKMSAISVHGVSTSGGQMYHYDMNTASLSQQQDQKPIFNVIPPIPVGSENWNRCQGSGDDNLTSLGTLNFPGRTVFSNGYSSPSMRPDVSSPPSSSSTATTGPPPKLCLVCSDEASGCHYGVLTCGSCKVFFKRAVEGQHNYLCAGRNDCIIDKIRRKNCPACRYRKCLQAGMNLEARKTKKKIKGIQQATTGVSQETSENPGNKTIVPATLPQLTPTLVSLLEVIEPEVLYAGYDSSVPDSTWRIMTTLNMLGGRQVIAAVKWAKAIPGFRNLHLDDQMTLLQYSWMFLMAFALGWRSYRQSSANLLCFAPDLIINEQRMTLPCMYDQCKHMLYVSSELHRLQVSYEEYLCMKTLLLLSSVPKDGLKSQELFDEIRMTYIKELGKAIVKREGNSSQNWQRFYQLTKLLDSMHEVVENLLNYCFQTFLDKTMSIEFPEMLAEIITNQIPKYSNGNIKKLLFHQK
As to the kind of experiment: Target selectivity counterscreen, Glucocorticoid Receptor reporter assay. The test is classed as cell-based. The note with it: receptor agonist at ~EC80. On the procedure:
as §1, §2

Test [4] has as its target T4, Estrogen Receptor β (Homo sapiens, UniProt Q92731).
T4 construct: host or cells: engineered reporter cells of the kit
Put plainly: Target selectivity counterscreen, Estrogen Receptor β reporter assay. The class given is cell-based. The following applies: receptor agonist at ~EC80. Here is the method:
as §1, §2

The test system of test [5] is B16F10 melanoma cells. As to the kind of experiment: In vivo cancer model: B16F10 model of pulmonary metastasis. Also on record: species or system C57BL6 mice. The note with it: intraperitoneal doses at 0.3, 3 and 30 mg/kg, daily, day 21, FIG. 1. On the procedure: In Vivo Cancer Model: B16F10 Model of Pulmonary Metastasis
B16F10 cells were cultured in standard growth media, harvested when approximately 50% confluent and injected into C57BL6 mice via the tail vein (50,000 cells per mouse in 200 μL). Mice were then treated daily with test compound. On day 21, mice were euthanized. Lungs were harvested and placed into Fekete's solution overnight to facilitate visualization of the tumors. Black nodules were enumerated.
Statistics were performed by ANOVA with Dunnett's Multiple Comparison Test post-hoc to determine statistical differences from vehicle treatment group (* denotes P<0.05 while *** denotes P<0.001).

Here are results for one molecule from patent publication US9505728B2, “Triazolone compounds and uses thereof” (INCEPTION 2, INC., priority 2012, dated 2016).

What is called IC50 is the concentration that inhibits the measured activity by half.

T4 sequence (Q92731 whole entry): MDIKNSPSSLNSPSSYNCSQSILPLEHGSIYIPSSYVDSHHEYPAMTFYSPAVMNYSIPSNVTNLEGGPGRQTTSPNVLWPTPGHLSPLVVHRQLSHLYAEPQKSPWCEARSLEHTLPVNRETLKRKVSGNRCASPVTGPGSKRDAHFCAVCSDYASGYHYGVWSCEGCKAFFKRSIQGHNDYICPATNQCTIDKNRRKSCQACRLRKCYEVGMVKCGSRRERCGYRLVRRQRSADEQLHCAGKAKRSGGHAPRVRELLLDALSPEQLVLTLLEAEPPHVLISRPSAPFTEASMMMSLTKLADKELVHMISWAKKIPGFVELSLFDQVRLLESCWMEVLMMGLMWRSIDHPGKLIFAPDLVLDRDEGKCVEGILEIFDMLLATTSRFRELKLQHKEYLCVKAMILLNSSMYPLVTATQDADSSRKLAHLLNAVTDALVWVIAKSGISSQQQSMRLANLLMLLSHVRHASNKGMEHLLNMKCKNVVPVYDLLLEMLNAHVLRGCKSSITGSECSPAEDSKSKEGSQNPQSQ

Take `CCn1c(CCCc2ccc(-c3ccc(NS(=O)(=O)c4ccccc4)cn3)cc2)nn(Cc2ccc(C(C)(C)C)cc2)c1=O` [Example 10, N-(6-(4-(3-(1-(4-(tert-Butyl)benzyl)-4-ethyl-5-oxo-4,5-dihydro-1H-1,2,4-triazol-3-yl)propyl)phenyl)pyridin-3-yl)benzenesulfonamide]: the half-maximal inhibitory concentration (IC50) in test [1] is over 10 µM; in test [2], 2.6 µM; in test [3], 36.5 µM; in test [4] it was 11.4 µM. The “metastasis of B16F10 melanoma cells to the lung (black nodules enumerated)” value in test [5] is “inhibition of metastasis”.
